Measurements from the Deep4Chem optical property database.
Blank lines part the entries; values can stand above or below the compound they belong to.

Experiment: solvent given as SMILES

Structure (SMILES): COc1ccc(OC)c(C=O)c1
absorption maximum (in C1CCOC1): 349 nm
absorption maximum (in C1COCCO1): 348 nm
absorption maximum (in CC#N): 349 nm
absorption maximum (in CC(C)=O): 349 nm
absorption maximum (in CCCO): 352 nm
absorption maximum (in CCO): 352 nm
absorption maximum (in CN(C)C=O): 351 nm
absorption maximum (in CN(C)P(=O)(N(C)C)N(C)C): 352 nm
absorption maximum (in CNC=O): 352 nm
absorption maximum (in CO): 352 nm
absorption maximum (in CS(C)=O): 353 nm
absorption maximum (in ClC(Cl)Cl): 352 nm
absorption maximum (in NC=O): 356 nm

absorption maximum (in ClCCl): 337 nm
Structure (SMILES): c1ccc(-c2cccc3ncc(-c4ccccc4)n23)cc1

Structure (SMILES): Cc1cc(-n2c3ccccc3c3cc4c(cc32)C2c3ccccc3C4c3ccccc32)ccc1-c1nc(-c2ccccc2)nc(-c2ccccc2)n1
absorption maximum (in Cc1ccccc1): 367 nm

Structure (SMILES): O=[N+]([O-])c1ccc(-c2nc3c(c4c2-c2ccccc2CC4)-c2ccccc2CC3)cc1
absorption maximum (in C1CCOC1): 350 nm
absorption maximum (in CC#N): 345 nm
absorption maximum (in CCCCCC): 339 nm
absorption maximum (in CCOC(C)=O): 339 nm
absorption maximum (in CO): 334 nm
absorption maximum (in CS(C)=O): 352 nm
absorption maximum (in Cc1ccccc1): 351 nm
absorption maximum (in ClCCl): 353 nm

Structure (SMILES): CCCCCCc1ccc2c(/C=N/c3cc(/N=C/c4c(O)ccc5cc(CCCCCC)ccc45)cc(/N=C/c4c(O)ccc5cc(CCCCCC)ccc45)c3)c(O)ccc2c1
absorption maximum (in C1CCOC1): 477 nm
absorption maximum (in CC#N): 474 nm
absorption maximum (in Cc1ccccc1): 480 nm
absorption maximum (in ClCCl): 479 nm

Structure (SMILES): COC(=O)/C(C#N)=c1\s/c(=c2/s/c(=C(/C#N)C(=O)OC)c3cc(-c4ccccc4)sc23)c2sc(-c3ccccc3)cc12
absorption maximum (in Cc1ccccc1): 605 nm

Structure (SMILES): CC1=C(c2cccs2)C(C)=[N+]2C1=C(c1ccc(OS(=O)(=O)c3ccc([N+](=O)[O-])cc3[N+](=O)[O-])cc1)c1c(C)c(-c3cccs3)c(C)n1[B-]2(F)F
absorption maximum (in CO): 526 nm
absorption maximum (in Cc1ccccc1): 535 nm
absorption maximum (in ClCCl): 533 nm

absorption maximum (in CC#N): 333 nm
Structure (SMILES): C=Cc1cc2ccc(OC)cc2oc1=O

absorption maximum (in ClCCl): 526 nm
absorption maximum (in OCC(F)(F)F): 512 nm
Structure (SMILES): C=CCOc1nnc(OCCC(F)(F)C(F)(F)C(F)(F)C(F)(F)C(F)(F)C(F)(F)C(F)(F)C(F)(F)F)nn1

absorption maximum (in C1COCCO1): 250 nm
Structure (SMILES): c1ccc(-c2cc(-c3ccccc3)cc(-c3ccccc3)c2)cc1

absorption maximum (in C1COCCO1): 392 nm
absorption maximum (in CC#N): 392 nm
absorption maximum (in CCCCCCC): 383 nm
absorption maximum (in CO): 394 nm
Structure (SMILES): CN(C)c1ccc(/C=C/C=C/c2ccncc2)cc1

Structure (SMILES): CCCCN1C(=O)C(=C/C=C/C=C/C=C2N(CCCC)c3ccccc3N2CCCC)C(=O)N(CCCC)C1=S
absorption maximum (in CC#N): 540 nm
absorption maximum (in CCCCCC): 678 nm
absorption maximum (in CCO): 492 nm
absorption maximum (in CN(C)C=O): 549 nm
absorption maximum (in CO): 483 nm
absorption maximum (in Cc1ccccc1): 689 nm
absorption maximum (in ClC(Cl)Cl): 658 nm
absorption maximum (in ClCCl): 642 nm
absorption maximum (in OCC(F)(F)F): 464 nm

Structure (SMILES): Cc1cc(=O)oc2cc3c4ccccc4c4ccccc4c3cc12
absorption maximum (in C1CCOC1): 378 nm
absorption maximum (in CC#N): 375 nm
absorption maximum (in CO): 377 nm
absorption maximum (in CS(C)=O): 378 nm
absorption maximum (in Cc1ccccc1): 381 nm
absorption maximum (in ClC(Cl)Cl): 362 nm

absorption maximum (in ClCCl): 320 nm
Structure (SMILES): FC(F)(F)c1ccc(C#Cc2ncc(-c3ccccc3)o2)cc1

absorption maximum (in ClCCl): 578 nm
Structure (SMILES): CCCCCCCCCCCCCCCCCCOC(=O)/C=C/C1=CC2=C(c3c(C)cc(C)cc3C)c3cc(/C=C/C(=O)OCCCCCCCCCCCCCCCCCC)cn3[B-](F)(F)[N+]2=C1

absorption maximum (in CCO): 612 nm
Structure (SMILES): CC1=C(Cl)C(/C=C/c2ccc3c(c2)c2ccccc2n3Cc2cn(CCC[P+](c3ccccc3)(c3ccccc3)c3ccccc3)nn2)=[N+]2C1=C(c1ccc(I)cc1)c1c(C)c(Cl)c(C)n1[B-]2(F)F

absorption maximum (in ClC(Cl)Cl): 349 nm
Structure (SMILES): O=c1oc2ccccc2cc1-c1cn2ccccc2n1

absorption maximum (in C1CCCCC1): 294 nm
Structure (SMILES): C[Si](C)(C)c1cccc2ccccc12

absorption maximum (in ClC(Cl)Cl): 347 nm
Structure (SMILES): CC(C)(C)c1ccc2oc3nc4oc5cc(-n6c7ccccc7c7ccccc76)ccc5c4cc3c2c1

absorption maximum (in CC#N): 428 nm
absorption maximum (in ClCCl): 434 nm
Structure (SMILES): COC(=O)c1cc(=O)n(C)c2cc(-c3ccc(N(C)C)cc3)sc12

absorption maximum (in ClCCl): 346 nm
Structure (SMILES): N#Cc1ccc(-c2cc3c(ccc4sccc43)s2)cc1

absorption maximum (in O): 428 nm
Structure (SMILES): N#Cc1c(N2CCCC2)cc(-c2ccccc2)c2c1-c1cccc3cccc-2c13

absorption maximum (in CC#N): 335 nm
Structure (SMILES): Cc1ccc(-c2ccc(/C=C/c3ccccc3)cn2)nc1

absorption maximum (in C1CCCCC1): 303.49 nm
Structure (SMILES): Oc1cccc2ccccc12

absorption maximum (in ClCCl): 579 nm
Structure (SMILES): CCCCCCOC(=O)/C=C/C1=CC2=C(c3c(C)cc(C)cc3C)c3cc(/C=C/C(=O)OCCCCCC)cn3[B-](F)(F)[N+]2=C1

Structure (SMILES): CC(C)CCCCN1CCc2c1ccc1c3c(ccc21)C(=O)CCC3
absorption maximum (in C1CCCCC1): 362 nm
absorption maximum (in CC#N): 370 nm
absorption maximum (in CC(C)O): 376 nm
absorption maximum (in CCC(C)=O): 368 nm
absorption maximum (in CCO): 374 nm
absorption maximum (in CCOC(C)=O): 366 nm
absorption maximum (in CS(C)=O): 376 nm
absorption maximum (in Cc1ccccc1): 368 nm
absorption maximum (in ClCCl): 373 nm
absorption maximum (in Clc1ccccc1): 370 nm

absorption maximum (in ClC(Cl)Cl): 348 nm
Structure (SMILES): CC(C)(C)c1ccc2oc3nc4oc5ccc(-n6c7ccccc7c7ccccc76)cc5c4cc3c2c1

absorption maximum (in CC1CCCCC1): 336 nm
absorption maximum (in CC#N): 320 nm
absorption maximum (in CO): 321 nm
Structure (SMILES): COC(=O)C(NC(=O)OC(C)(C)C)c1ccc2oc(-c3ccc(O)cc3O)nc2c1 (centres undefined)

absorption maximum (in ClC(Cl)Cl): 372 nm
Structure (SMILES): COc1cc(OC)c2cc(-c3ccc(-c4cc5c(OC)cc(OC)cc5oc4=O)cc3)c(=O)oc2c1

absorption maximum (in ClC(Cl)Cl): 340 nm
Structure (SMILES): N#Cc1ccc(C#Cc2ccc(C#Cc3ccccc3C#N)cc2C#N)cc1

Structure (SMILES): Cc1cc(C)c(B(c2cc3ccc4cccc5ccc(c2)c3c45)c2c(C)cc(C)cc2C)c(C)c1
absorption maximum (in Cc1ccccc1): 413 nm

absorption maximum (in ClC(Cl)Cl): 315 nm
Structure (SMILES): COc1ccc(-n2c3c4ccccc4nc(-c4ccc(C#N)cc4)c3c3c2c2c(-c4ccc(C#N)cc4)nc4ccccc4c2n3-c2ccc(OC)cc2)cc1

absorption maximum (in CCCCCC): 440 nm
absorption maximum (in CO): 459 nm
Structure (SMILES): O=C1C=C(Nc2cccc(F)c2)C(=O)c2ccccc21

Structure (SMILES): Cc1ccccc1C(=O)NN1C2=C(CC3=C1CC(C)(C)CC3=O)C(=O)CC(C)(C)C2
absorption maximum (in C1CCOC1): 370 nm
absorption maximum (in CC#N): 370 nm
absorption maximum (in CC(C)=O): 368 nm
absorption maximum (in CCCCCO): 378 nm
absorption maximum (in CO): 376 nm
absorption maximum (in ClC(Cl)Cl): 370 nm
absorption maximum (in ClCCl): 368 nm

absorption maximum (in ClCCl): 432 nm
Structure (SMILES): Cc1cc(-c2ccc(N(c3ccccc3)c3ccccc3)cc2)c2nsnc2c1-c1ccc(N(c2ccccc2)c2ccccc2)cc1

absorption maximum (in C1CCCCC1): 366 nm
Structure (SMILES): CCn1c2ccccc2c2ccc(C#N)cc21

Structure (SMILES): c1ccc(-c2nc(-c3ccccc3)nc(-c3ccc(-n4c5ccccc5c5c6c(ccc54)-c4ccccc4C6(c4ccccc4)c4ccccc4)cc3)n2)cc1
absorption maximum (in Cc1ccccc1): 372 nm

absorption maximum (in ClCCl): 433 nm
Structure (SMILES): N#Cc1cc(/C=C/c2ccc(N(c3ccccc3)c3ccccc3)cc2)ccc1/C=C/c1ccc(/C=C/c2ccc(N(c3ccccc3)c3ccccc3)cc2)cc1

Structure (SMILES): CC1=NN(c2ccccc2)C(=O)/C1=C/c1cn(-c2ccccc2)nc1-c1ccccc1
absorption maximum (in C1CCOC1): 365 nm
absorption maximum (in C1COCCO1): 366 nm
absorption maximum (in CCO): 367 nm
absorption maximum (in CCOC(C)=O): 364 nm
absorption maximum (in CN(C)C=O): 367 nm
absorption maximum (in CO): 364 nm
absorption maximum (in CS(C)=O): 370 nm
absorption maximum (in Cc1ccccc1): 369 nm
absorption maximum (in ClC(Cl)Cl): 368 nm
absorption maximum (in ClCCl): 368 nm

Structure (SMILES): N#Cc1ccc(-c2ccc3c(c2)c2cc(-c4ccc(C#N)cc4)ccc2c2c3nc(-c3ccc(-c4ccc(N(c5ccccc5)c5ccccc5)cc4)cc3)n2-c2ccccc2)cc1
absorption maximum (in C1CCOC1): 360.44 nm
absorption maximum (in CC#N): 360.44 nm
absorption maximum (in CCCCCC): 370.05 nm
absorption maximum (in CCOCC): 366.21 nm

absorption maximum (in CC#N): 256 nm
Structure (SMILES): O=c1cc[nH]c(=O)[nH]1

absorption maximum (in ClCCl): 568 nm
Structure (SMILES): F[B-]1(F)n2c(c(-c3ccccc3)c3ccccc32)C(c2ccccc2)=C2C(c3ccccc3)=c3ccccc3=[N+]21

absorption maximum (in ClC(Cl)Cl): 665 nm
Structure (SMILES): CCCCCCCCCCOc1cc(OCCCCCCCCCC)cc(C2=C3C(C)=CC(/C=C/c4ccc(OC)cc4)=[N+]3[B-](F)(F)n3c(/C=C/c4ccc(OC)cc4)cc(C=Cc4ccc(OC)cc4)c32)c1

Structure (SMILES): CC1(C)c2ccccc2N(c2ccc3c(c2)Oc2ccccc2S3(=O)=O)c2ccccc21
absorption maximum (in Cc1ccccc1): 356 nm

absorption maximum (in ClC(Cl)Cl): 485 nm
Structure (SMILES): N#Cc1nc(N(Cc2ccccc2Cl)Cc2ccccc2Cl)c(C#N)nc1N(Cc1ccccc1Cl)Cc1ccccc1Cl

Structure (SMILES): Cc1ccccc1
absorption maximum (in C1CCCCC1): 256.48 nm

Structure (SMILES): CCN(CC)c1ccc(Nc2cc3oc(-c4ccc(C#N)cc4)nc3c3ccccc23)cc1
absorption maximum (in C1COCCO1): 420 nm
absorption maximum (in CC(C)=O): 420 nm
absorption maximum (in ClCCl): 420 nm
absorption maximum (in c1ccccc1): 420 nm

Structure (SMILES): CC1(C)c2ccccc2N(c2ccc(-c3nnc(-c4ccccc4O)o3)cc2)c2ccccc21
absorption maximum (in C1CCOC1): 361 nm
absorption maximum (in C1COCCO1): 363 nm
absorption maximum (in CC#N): 358 nm
absorption maximum (in CC(C)=O): 361 nm
absorption maximum (in CCCCCC): 362 nm
absorption maximum (in CCO): 361 nm
absorption maximum (in CCOC(C)=O): 360 nm
absorption maximum (in CN(C)C=O): 360 nm
absorption maximum (in CS(C)=O): 364 nm
absorption maximum (in Cc1ccccc1): 362 nm
absorption maximum (in ClC(Cl)Cl): 365 nm
absorption maximum (in ClCCCl): 368 nm
absorption maximum (in ClCCl): 366 nm
absorption maximum (in Clc1ccccc1): 367 nm

absorption maximum (in ClCCl): 648 nm
Structure (SMILES): CCCCN1C(=O)c2cc(Oc3ccc(C(C)(C)C)cc3)c3c4c(Oc5ccc(C(C)(C)C)cc5)cc5c(=O)n6c(c7cc(Oc8ccc(C(C)(C)C)cc8)c(c8c(Oc9ccc(C(C)(C)C)cc9)cc(c2c38)C1=O)c4c57)=Cc1ccc2ccccc2[n+]1[B-]6(F)F

Structure (SMILES): Cc1ccc(/C(C#N)=C/c2cc(/C=C(\C#N)c3ccc(C)cc3)c(-c3ccc(N(c4ccccc4)c4ccccc4)cc3)cc2-c2ccc(N(c3ccccc3)c3ccccc3)cc2)cc1
absorption maximum (in C1CCCCC1): 385 nm
absorption maximum (in C1CCOC1): 391 nm
absorption maximum (in CCCCCC): 385 nm
absorption maximum (in CCOC(C)=O): 393 nm
absorption maximum (in Cc1ccccc1): 391 nm
absorption maximum (in ClC(Cl)Cl): 385 nm
absorption maximum (in ClCCl): 393 nm
